Test results reported in patent US9693997B2, “Antiviral compounds” (priority 2013, dated 2017).
Structures can show the parent of a compound that is named as a salt.

What was measured:
[1] = test system: Pseudotyped HCV GT1b particles (HCVpp), entry into Huh7-high CD81 cells; experiment: microbe, parasite or virus in culture; assay type: cell-based, HCV GT1b Con1 strain; conditions: Hepatitis C virus, GT1B, 72 h, read-out: HCVpp GT-1b (EC50, μM)
[2] = test system: pseudotyped VSV G particles (VSVpp) in Huh7-high CD81 cells; experiment: microbe, parasite or virus in culture; assay type: cell-based, vesicular stomatitis virus; conditions: Vesicular stomatitis virus, 72 h, read-out: VSVpp (EC50, μM)

Row | SMILES | EC50 [1] [µM] | EC50 [2] [µM]
1 | Nc1n[nH]c(Nc2cc(F)c(-c3ccc(S(=O)(=O)N4CCOCC4)cc3)c(C(F)(F)F)c2)n1 [Compound 78, N^5-[6-Fluoro-4′-(morpholine-4-sulfonyl)-2-trifluoromethylbiphenyl-4-yl]-1H-[1,2,4]-triazole-3,5-diamine] | 0.346 | 8.18
2 | N#Cc1ccc(-c2c(F)cc(Nc3nc(N)n[nH]3)cc2C(F)(F)F)cc1 [Compound 79, 4′-(5-Amino-2H-[1,2,4]-triazol-3-ylamino)-6′-fluoro-2′-trifluoromethyl-biphenyl-4-carbonitrile] | 0.483 | 8.11
3 | CS(=O)(=O)c1cccc(-c2c(F)cc(Nc3nc(N)n[nH]3)cc2F)c1 [Compound 80, N^5-(2,6-difluoro-3′-(methylsulfonyl)biphenyl-4-yl)-1H-[1,2,4]-triazole-3,5-diamine] | 0.286 | > 10
4 | CNS(=O)(=O)c1cccc(-c2c(F)cc(Nc3nc(N)n[nH]3)cc2C(F)(F)F)c1 [Compound 81, 4′-(5-Amino-2H-[1,2,4]-triazol-3-ylamino)-6′-fluoro-2′-trifluoromethyl-biphenyl-3-sulfonic acid methylamide] | 0.549 | 34.9
5 | Nc1nc(Nc2cc(Cl)c(-c3ccc(NC(=O)C4CCOCC4)cc3)c(Cl)c2)n[nH]1 [Compound 82, Tetrahydropyran-4-carboxylic acid-(4′-(5-amino-1H-[1,2,4]triazol-3-ylamino)-2′,6′-dichlorobiphenyl-4-yl)-amide] | 0.39 | > 10
6 | Nc1nc(Nc2cc(Cl)c(-c3ccc([N+](=O)[O-])cc3)c(Cl)c2)n[nH]1 [Compound 83] | 0.532 | 4.34
7 | CN(C)S(=O)(=O)c1cccc(-c2c(F)cc(Nc3nc(N)n[nH]3)cc2C(F)(F)F)c1 [Compound 84, 4′-(5-Amino-2H-[1,2,4]-triazol-3-ylamino)-6′-fluoro-2′-trifluoromethyl-biphenyl-3-sulfonic acid dimethylamide] | 0.43 | 16.8
8 | CN(C)C(=O)c1ccc(-c2c(F)cc(Nc3nc(N)n[nH]3)cc2C(F)(F)F)cc1 [Compound 85, 4′-(5-Amino-2H-[1,2,4]-triazol-3-ylamino)-6′-fluoro-2′-trifluoromethyl-biphenyl-4-carboxylic acid dimethylamide] | 0.568 | > 10
9 | COc1ccc(-c2c(F)cc(Nc3nc(N)n[nH]3)cc2C(F)(F)F)cc1 [Compound 86, N^5-[6-Fluoro-4′-methoxy-2-trifluoromethylbiphenyl-4-yl]-1H-[1,2,4]-triazole-3,5-diamine] | 0.525 | 8.87
10 | N#Cc1ccc(-c2c(F)cc(Nc3nc(N)n[nH]3)cc2F)cc1 [Compound 87] | 0.696 | > 10
11 | Nc1n[nH]c(Nc2cc(F)c(-c3ccc(S(=O)(=O)C(F)(F)F)cc3)c(C(F)(F)F)c2)n1 [Compound 88, N^5-[6-Fluoro-4′-trifluoromethanesulfonyl-2-trifluoromethylbiphenyl-4-yl]-1H-[1,2,4]-triazole-3,5-diamine] | 1.95 | 25.2
12 | N#Cc1cccc(-c2c(F)cc(Nc3nc(N)n[nH]3)cc2C(F)(F)F)c1 [Compound 89, 4′-(5-Amino-2H-[1,2,4]-triazol-3-ylamino)-6′-fluoro-2′-trifluoromethyl-biphenyl-3-carbonitrile] | 25.1 | 33.3
13 | CS(=O)(=O)c1ccc(-c2ccc(Nc3n[nH]c(N)n3)cc2C(F)(F)F)cc1 [Compound 90, N3-(4′-(methylsulfonyl)-2-(trifluoromethyl)biphenyl-4-yl)-1H-1,2,4-triazole-3,5-diamine] | 0.875 | 15.7
14 | Nc1nc(Nc2cc(Cl)c(-c3cccc(C(F)(F)F)c3)c(Cl)c2)n[nH]1 [Compound 108, N-3-(2,6-Dichloro-3′-trifluoromethyl-biphenyl-4-yl)-1H-[1,2,4]triazole-3,5-diamine] | 0.014 | 29
15 | Nc1nc(Nc2cc(Cl)c(-c3cccc(Cl)c3Cl)c(Cl)c2)n[nH]1 [Compound 109, N-3-(2,6,2′,3′-Tetrachloro-biphenyl-4-yl)-1H-[1,2,4]triazole-3,5-diamine] | 0.74 | 46.5
16 | COC(=O)c1ccc(-c2c(Cl)cc(Nc3n[nH]c(N)n3)cc2Cl)cc1 [Compound 110, 4′-(5-Amino-1H-[1,2,4]triazol-3-ylamino)-2′,6′-dichloro-biphenyl-4-carboxylic acid methyl ester] | 0.1 | 25
17 | CN(C)C(=O)c1ccc(-c2c(Cl)cc(Nc3n[nH]c(N)n3)cc2Cl)cc1 [Compound 113, 4′-(5-Amino-1H-[1,2,4]triazol-3-ylamino)-2′,6′-dichloro-biphenyl-4-carboxylic acid dimethylamide] | 0.079 | 43.2
18 | CNS(=O)(=O)c1cccc(-c2c(Cl)cc(Nc3n[nH]c(N)n3)cc2Cl)c1 [Compound 119, 4′-(5-Amino-1H-[1,2,4]triazol-3-ylamino)-2′,6′-dichloro-biphenyl-3-sulfonic acid methylamide] | 0.046 | 3.94
19 | COc1ccccc1-c1c(Cl)cc(Nc2n[nH]c(N)n2)cc1Cl [Compound 120, N-3-(2,6-Dichloro-2′-methoxy-biphenyl-4-yl)-1H-[1,2,4]triazole-3,5-diamine] | 0.181 | 1.12
20 | CS(=O)(=O)c1ccc(-c2c(Cl)cc(Nc3n[nH]c(N)n3)cc2Cl)cc1F [Compound 121, N-3-(2,6-Dichloro-3′-fluoro-4′-methanesulfonyl-biphenyl-4-yl)-1H-[1,2,4]triazole-3,5-diamine] | 0.068 | 0.08
21 | Nc1nc(Nc2cc(Cl)c(-c3ccc(Cl)cc3Cl)c(Cl)c2)n[nH]1 [Compound 124, N-3-(2,6,2′,4′-Tetrachloro-biphenyl-4-yl)-1H-[1,2,4]triazole-3,5-diamine] | 1.01 | 4.49
22 | CN(CCOc1ccc(-c2c(Cl)cc(Nc3n[nH]c(N)n3)cc2C(F)(F)F)cc1)C(=O)OC(C)(C)C [Compound 125, {2-[4′-(5-Amino-1H-[1,2,4]triazol-3-ylamino)-6′-chloro-2′-trifluoromethyl-biphenyl-4-yloxy]-ethyl}-methyl-carbamic acid tert-butyl ester] | 0.096 | > 10
23 | CNCCOc1ccc(-c2c(Cl)cc(Nc3n[nH]c(N)n3)cc2C(F)(F)F)cc1 [Compound 126, N*3*-[6-Chloro-4′-(2-methylamino-ethoxy)-2-trifluoromethyl-biphenyl-4-yl]-1H-[1,2,4]triazole-3,5-diamine hydrochloride] | 0.088 | > 10
24 | CN1C(C)(C)CC(Sc2ccc(-c3c(Cl)cc(Nc4n[nH]c(N)n4)cc3C(F)(F)F)cc2)CC1(C)C [Compound 127, N*3*-[6-Chloro-4′-(1,2,2,6,6-pentamethyl-piperidin-4-ylsulfanyl)-2-trifluoromethyl-biphenyl-4-yl]-1H-[1,2,4]triazole-3,5-diamine] | 0.144 | 9.69
25 | CN(C(=O)OC(C)(C)C)C(C)(C)COc1ccc(-c2c(Cl)cc(Nc3n[nH]c(N)n3)cc2C(F)(F)F)cc1 [Compound 128, {2-[4′-(5-Amino-1H-[1,2,4]triazol-3-ylamino)-6′-chloro-2′-trifluoromethyl-biphenyl-4-yloxy]-1,1-dimethyl-ethyl}-methyl-carbamic acid tert-butyl ester] | 0.011 | 9.26
